Test results published in patent US20150366966A1, “Stable Aqueous Solution” (SENJU PHARMACEUTICAL CO., LTD., priority 2013, published 2015).

Key:
[1] = target: T1, PPARδ (Homo sapiens, UniProt Q03181); settings: reported in WO 03/033493 and WO 2008/143254; cited from earlier work
T1 sequence (Q03181 1-441): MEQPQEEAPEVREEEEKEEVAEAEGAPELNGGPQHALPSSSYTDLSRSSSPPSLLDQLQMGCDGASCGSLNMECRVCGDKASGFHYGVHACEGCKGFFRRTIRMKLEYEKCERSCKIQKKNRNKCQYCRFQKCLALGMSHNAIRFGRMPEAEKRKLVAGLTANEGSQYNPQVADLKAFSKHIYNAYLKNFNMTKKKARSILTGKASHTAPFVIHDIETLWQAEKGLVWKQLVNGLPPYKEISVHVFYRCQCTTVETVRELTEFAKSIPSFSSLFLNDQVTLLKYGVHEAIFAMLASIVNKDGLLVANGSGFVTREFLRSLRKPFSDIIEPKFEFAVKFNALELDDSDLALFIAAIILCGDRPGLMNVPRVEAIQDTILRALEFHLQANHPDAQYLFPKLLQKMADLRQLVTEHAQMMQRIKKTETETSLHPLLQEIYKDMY

[2] = Light stability of compound A in aqueous solution (residual ratio by HPLC after white light irradiation); type: physicochemical
Description: An aqueous solution of compound A was prepared according to the following formulation. In 0.1% phosphate buffer was added a predetermined amount of tyloxapol, octoxynol, polysorbate 80, HCO-60 or MYS-40, and the mixture was adjusted to […] with sodium hydroxide. Compound A in the predetermined amount in the following formulation was dissolved in said solution, and the mixture was sterilized by filtration with a 0.22 μm membrane filter, and filled in a 5 mL colorless glass ampoule. Using a photostability testing device (model: LT-120A-WCD, manufactured by Nagano Science Co., Ltd.), the ampoule was exposed to white light (total illumination 12000 lux·h and 24000 lux·h), and the content of compound A in the glass ampoule was measured.
Compound A after storage was quantified by high performance liquid chromatography using the absolute calibration curve method (the Japanese Pharmacopoeia). […]
An aqueous solution of compound A was prepared according to the following formulation. […] The glass ampoule was placed, under light irradiation conditions and storage conditions at 80° C. for 1 week, and the content of each compound A was measured. Compound A was quantified in the same manner as in Experimental Example 1 and Experimental Example 2.

[3] = Solubility of compound A in water; type: physicochemical
Description: This has already been shown by the fact that the heat stability of compound A in an aqueous solution decreases extremely when polysorbate 80 conventionally widely used as a solubilizer of poorly soluble drugs is added (see below-mentioned Experimental Example 2, Comparative Example 1).

solubility in water (in words) [3]: practically insoluble in water
Structure (SMILES): Cc1cc2c(CCc3sc(-c4ccc(C(F)(F)F)cc4)nc3C(C)C)noc2cc1OCC(=O)O [Compound A, (3-{2-[4-isopropyl-2-(4-trifluoromethyl)phenyl-5-thiazolyl]ethyl}-5-methyl-1,2-benzisoxazol-6-yl)oxyacetic acid]
PPARδ agonist action (in words) [1]: PPARδ agonist
stability to light in aqueous solution (in words) [2]: extremely unstable to light in an aqueous solution
